Laboratory results published in patent US20060069132A1, “Azolecarboxamide herbicides” (priority 2004, published 2006).

Key:
wild oat = experiment: Test B postemergence herbicide test; assay type: in vivo, Avena fatua; conditions: postemergence
Outline: (§1)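 Read-out: visual comparison with controls, scored 0 to 100, where 100 means complete control and 0 no effect. Formulated chemicals were applied postemergence to plants 2–18 cm tall (1- to 4-leaf), or to flooded-paddy plants at the 2-leaf stage, then held 13 to 15 days under glass.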

lambsquarters = experiment: Test B pre-/postemergence herbicide test; assay type: in vivo, Chenopodium album; conditions: for Lambsquarters plant response rating: postemergence
Outline: (§2)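 Greenhouse pot assay with simultaneous preemergence (treated seed) and postemergence (2–18 cm seedlings) applications of surfactant-containing, non-phytotoxic solvent formulations. Response scored visually 13–15 days later on a 0–100 scale, 100 meaning complete control.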

barnyardgrass [1] = experiment: Test B pre-/postemergence herbicide test; assay type: in vivo, Echinochloa crus-galli; conditions: for Barnyardgrass plant response rating: postemergence
Outline: (§3)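 Seeds were planted and treated preemergence with compounds formulated in a non-phytotoxic solvent mixture containing surfactant, while plants at the 1- to 4-leaf stage (2 to 18 cm) received postemergence sprays. Flooded paddy plants were grown to the 2-leaf stage. After 13 to 15 days in a greenhouse, injury was visually rated 0–100 against untreated controls.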

large crabgrass = experiment: Test B pre-/postemergence herbicide test; assay type: in vivo, Digitaria sanguinalis; conditions: for Crabgrass, Large plant response rating: postemergence
Outline: as §2

velvetleaf = experiment: Test B pre-/postemergence herbicide test; assay type: in vivo, Abutilon theophrasti; conditions: for Velvetleaf plant response rating: postemergence; for Plant response rating, Velvetleaf: 0 = no effect, 100 = complete control
Outline: as §2

morningglory = experiment: Test B pre-/postemergence herbicide test; assay type: in vivo, Ipomoea coccinea; conditions: for Morningglory plant response rating: postemergence
Outline: as §3

barnyardgrass [2] = experiment: Test B flooded paddy test; assay type: in vivo, Echinochloa crus-galli; conditions: 1000 g ai/ha, scale 0 to 100 (0 no effect, 100 complete control)
Outline: (§4)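 Postemergence plants were sprayed with formulated test chemicals at 2 to 18 cm height (1- to 4-leaf stage); paddy species were grown to the 2-leaf stage. After 13 to 15 days in a greenhouse, injury was rated visually against untreated controls on a 0–100 scale (0 = no effect, 100 = complete control).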

giant foxtail = experiment: Test B pre-/postemergence herbicide test; assay type: in vivo, Setaria faberi; conditions: for Foxtail, Giant plant response rating: postemergence
Outline: as §2

cocklebur = experiment: Test B pre-/postemergence herbicide test; assay type: in vivo, Xanthium strumarium; conditions: for Cocklebur plant response rating: postemergence
Outline: as §3

rice = experiment: Test B flooded paddy test; assay type: in vivo, Oryza sativa; conditions: 1000 g ai/ha, scale 0 to 100 (0 no effect, 100 complete control)
Outline: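 Greenhouse test; postemergence application to plants at 1–4 leaves (2–18 cm); paddy species at 2 leaves; evaluated visually vs controls at 13–15 days; scale 0–100 (100 = complete control).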

[3] = tested on: small flower umbrella sedge; experiment: Test B flooded paddy test; assay type: in vivo, Cyperus difformis; conditions: 1000 g ai/ha, scale 0 to 100 (0 no effect, 100 complete control)
Outline: as §4

pigweed = experiment: Test B pre-/postemergence herbicide test; assay type: in vivo, Amaranthus retroflexus; conditions: for Pigweed plant response rating: postemergence
Outline: as §2

Surinam grass = experiment: Test B pre-/postemergence herbicide test; assay type: in vivo, Urochloa decumbens; conditions: for Surinam Grass plant response rating: postemergence
Outline: as §2

wheat = experiment: Test B postemergence herbicide test; assay type: in vivo, Triticum aestivum; design: key to Wheat plant response rating: 0 = no effect, 100 = complete control; conditions: postemergence
Outline: as §1

blackgrass = experiment: Test B postemergence herbicide test; assay type: in vivo, Alopecurus myosuroides; conditions: postemergence
Outline: as §4

[4] = 125 g ai/ha, visual rating, scale 0 (no effect) to 100 (complete control)
[5] = 500 g ai/ha, scale 0 to 100, 0 is no effect, 100 is complete control
[6] = 125 g ai/ha, 0 = no effect, 100 = complete control, preemergence
[7] = 500 g ai/ha, visual rating, 0 = no effect, 100 = complete control, preemergence
[8] = 500 g ai/ha, visual rating, preemergence
[9] = 125 g ai/ha, 0 is no effect, 100 is complete control, preemergence

## CCn1nc(C2(C)CC2)cc1C(=O)Nc1cc(C(=O)N2CC=CC2)ccc1F [Compound 301]
Wild oat; [4]
  Oat, Wild plant response rating: 20
Wild oat; [5]
  Oat, Wild plant response rating: 40
lambsquarters; [6]
  Lambsquarters plant response rating (0 to 100 scale): 100
lambsquarters; [4]
  Lambsquarters plant response rating: 70
lambsquarters; [7]
  Plant response rating, Lambsquarters: 100
lambsquarters; [5]
  Lambsquarters plant response rating: 80
Barnyardgrass [1]; [6]
  Barnyardgrass plant response rating (0 to 100 scale): 60
Barnyardgrass [1]; [4]
  Barnyardgrass plant response rating: 20
Barnyardgrass [1]; [7]
  Plant response rating, Barnyardgrass: 100
Barnyardgrass [1]; [5]
  Barnyardgrass plant response rating: 60
Large crabgrass; [6]
  Crabgrass, Large plant response rating (0 to 100 scale): 100
Large crabgrass; [4]
  Crabgrass, Large plant response rating: 20
Large crabgrass; [7]
  Plant response rating, Crabgrass, Large: 100
Large crabgrass; [5]
  Crabgrass, Large plant response rating: 60
velvetleaf; [4]
  Velvetleaf plant response rating: 30
velvetleaf; [8]
  Plant response rating, Velvetleaf: 100
velvetleaf; [5]
  Velvetleaf plant response rating: 100
morningglory; [6]
  Morningglory plant response rating (0 to 100 scale): 10
morningglory; [4]
  Morningglory plant response rating: 60
morningglory; [7]
  Plant response rating, Morningglory: 80
morningglory; [5]
  Morningglory plant response rating: 90
Barnyardgrass [2]
  Barnyardgrass plant response rating: 90
Giant foxtail; [6]
  Foxtail, Giant plant response rating (0 to 100 scale): 70
Giant foxtail; [4]
  Foxtail, Giant plant response rating: 10
Giant foxtail; [7]
  Plant response rating, Foxtail, Giant: 90
Giant foxtail; [5]
  Foxtail, Giant plant response rating: 20
cocklebur; [6]
  Cocklebur plant response rating (0 to 100 scale): 0
cocklebur; [4]
  Cocklebur plant response rating: 10
cocklebur; [7]
  Plant response rating, Cocklebur: 0
cocklebur; [5]
  Cocklebur plant response rating: 50
rice
  Rice plant response rating: 90
[3]
  Sedge, Umbrella plant response rating: 90
pigweed; [6]
  Pigweed plant response rating (0 to 100 scale): 100
pigweed; [4]
  Pigweed plant response rating: 80
pigweed; [7]
  Plant response rating, Pigweed: 100
pigweed; [5]
  Pigweed plant response rating: 90
Surinam grass; [6]
  Surinam Grass plant response rating (0 to 100 scale): 90
Surinam grass; [4]
  Surinam Grass plant response rating: 10
Surinam grass; [7]
  Plant response rating, Surinam Grass: 100
Surinam grass; [5]
  Surinam Grass plant response rating: 30
wheat; [4]
  Wheat plant response rating: 10
wheat; [5]
  Wheat plant response rating: 20
blackgrass; [4]
  Blackgrass plant response rating: 10
blackgrass; [5]
  Blackgrass plant response rating: 40

## CCN(CC)C(=O)c1cccc(NC(=O)c2cc(C(C)(C)C)nn2C)n1 [Compound 314]
Wild oat; [4]
  Oat, Wild plant response rating: 10
Wild oat; [5]
  Oat, Wild plant response rating: 30
lambsquarters; [9]
  Plant response rating (0 to 100 scale), Lambsquarters: 20
lambsquarters; [4]
  Lambsquarters plant response rating: 30
lambsquarters; [7]
  Plant response rating, Lambsquarters: 80
lambsquarters; [5]
  Lambsquarters plant response rating: 60
Barnyardgrass [1]; [9]
  Plant response rating (0 to 100 scale), Barnyardgrass: 10
Barnyardgrass [1]; [4]
  Barnyardgrass plant response rating: 10
Barnyardgrass [1]; [7]
  Plant response rating, Barnyardgrass: 90
Barnyardgrass [1]; [5]
  Barnyardgrass plant response rating: 30
Large crabgrass; [9]
  Plant response rating (0 to 100 scale), Crabgrass, Large: 20
Large crabgrass; [4]
  Crabgrass, Large plant response rating: 10
Large crabgrass; [7]
  Plant response rating, Crabgrass, Large: 30
Large crabgrass; [5]
  Crabgrass, Large plant response rating: 20
velvetleaf; [9]
  Plant response rating (0 to 100 scale), Velvetleaf: 20
velvetleaf; [4]
  Velvetleaf plant response rating: 20
velvetleaf; [8]
  Plant response rating, Velvetleaf: 100
velvetleaf; [5]
  Velvetleaf plant response rating: 30
morningglory; [9]
  Plant response rating (0 to 100 scale), Morningglory: 0
morningglory; [4]
  Morningglory plant response rating: 20
morningglory; [7]
  Plant response rating, Morningglory: 20
morningglory; [5]
  Morningglory plant response rating: 80
Barnyardgrass [2]
  Barnyardgrass plant response rating: 30
Giant foxtail; [9]
  Plant response rating (0 to 100 scale), Foxtail, Giant: 30
Giant foxtail; [4]
  Foxtail, Giant plant response rating: 20
Giant foxtail; [7]
  Plant response rating, Foxtail, Giant: 100
Giant foxtail; [5]
  Foxtail, Giant plant response rating: 20
cocklebur; [9]
  Plant response rating (0 to 100 scale), Cocklebur: 0
cocklebur; [4]
  Cocklebur plant response rating: 10
cocklebur; [7]
  Plant response rating, Cocklebur: 0
cocklebur; [5]
  Cocklebur plant response rating: 30
rice
  Rice plant response rating: 0
[3]
  Sedge, Umbrella plant response rating: 60
pigweed; [9]
  Plant response rating (0 to 100 scale), Pigweed: 90
pigweed; [4]
  Pigweed plant response rating: 60
pigweed; [7]
  Plant response rating, Pigweed: 100
pigweed; [5]
  Pigweed plant response rating: 70
Surinam grass; [9]
  Plant response rating (0 to 100 scale), Surinam Grass: 20
Surinam grass; [4]
  Surinam Grass plant response rating: 20
Surinam grass; [7]
  Plant response rating, Surinam Grass: 80
Surinam grass; [5]
  Surinam Grass plant response rating: 20
wheat; [4]
  Wheat plant response rating: 0
wheat; [5]
  Wheat plant response rating: 10
blackgrass; [4]
  Blackgrass plant response rating: 10
blackgrass; [5]
  Blackgrass plant response rating: 20
